Columns and labels:
[1] = biological target: Proto-oncogene tyrosine-protein kinase Src (Gallus gallus, UniProt P00523); test: Inhibition of glutamate/tyrosine (4:1) copolymer phosphorylation by avian c-Src tyrosine kinase
[2] = biological target: Platelet-derived growth factor receptor beta (Mus musculus, UniProt P05622); test: Inhibition of glutamate/tyrosine (4:1) copolymer phosphorylation by mouse platelet-derived growth factor receptor-beta
[3] = biological target: Platelet-derived growth factor receptor (PDGFr) (Rattus norvegicus, UniProt P20786+Q05030); test: Inhibition of PDGF-dependent rat glioma cell proliferation; type: functional
[4] = biological target: Vascular endothelial growth factor receptor (Homo sapiens, UniProt P17948+P35916+P35968); test: Inhibition of VEGF-stimulated human umbilical vein endothelial cell proliferation; type: functional, cell-based
[5] = biological target: Vascular endothelial growth factor receptor 2 (Homo sapiens, UniProt P35968); test: Inhibition of glutamate/tyrosine (4:1) copolymer phosphorylation by human VEGFR 2 in DELFIA assay
Sequence of Vascular endothelial growth factor receptor 2 (P35968 whole entry): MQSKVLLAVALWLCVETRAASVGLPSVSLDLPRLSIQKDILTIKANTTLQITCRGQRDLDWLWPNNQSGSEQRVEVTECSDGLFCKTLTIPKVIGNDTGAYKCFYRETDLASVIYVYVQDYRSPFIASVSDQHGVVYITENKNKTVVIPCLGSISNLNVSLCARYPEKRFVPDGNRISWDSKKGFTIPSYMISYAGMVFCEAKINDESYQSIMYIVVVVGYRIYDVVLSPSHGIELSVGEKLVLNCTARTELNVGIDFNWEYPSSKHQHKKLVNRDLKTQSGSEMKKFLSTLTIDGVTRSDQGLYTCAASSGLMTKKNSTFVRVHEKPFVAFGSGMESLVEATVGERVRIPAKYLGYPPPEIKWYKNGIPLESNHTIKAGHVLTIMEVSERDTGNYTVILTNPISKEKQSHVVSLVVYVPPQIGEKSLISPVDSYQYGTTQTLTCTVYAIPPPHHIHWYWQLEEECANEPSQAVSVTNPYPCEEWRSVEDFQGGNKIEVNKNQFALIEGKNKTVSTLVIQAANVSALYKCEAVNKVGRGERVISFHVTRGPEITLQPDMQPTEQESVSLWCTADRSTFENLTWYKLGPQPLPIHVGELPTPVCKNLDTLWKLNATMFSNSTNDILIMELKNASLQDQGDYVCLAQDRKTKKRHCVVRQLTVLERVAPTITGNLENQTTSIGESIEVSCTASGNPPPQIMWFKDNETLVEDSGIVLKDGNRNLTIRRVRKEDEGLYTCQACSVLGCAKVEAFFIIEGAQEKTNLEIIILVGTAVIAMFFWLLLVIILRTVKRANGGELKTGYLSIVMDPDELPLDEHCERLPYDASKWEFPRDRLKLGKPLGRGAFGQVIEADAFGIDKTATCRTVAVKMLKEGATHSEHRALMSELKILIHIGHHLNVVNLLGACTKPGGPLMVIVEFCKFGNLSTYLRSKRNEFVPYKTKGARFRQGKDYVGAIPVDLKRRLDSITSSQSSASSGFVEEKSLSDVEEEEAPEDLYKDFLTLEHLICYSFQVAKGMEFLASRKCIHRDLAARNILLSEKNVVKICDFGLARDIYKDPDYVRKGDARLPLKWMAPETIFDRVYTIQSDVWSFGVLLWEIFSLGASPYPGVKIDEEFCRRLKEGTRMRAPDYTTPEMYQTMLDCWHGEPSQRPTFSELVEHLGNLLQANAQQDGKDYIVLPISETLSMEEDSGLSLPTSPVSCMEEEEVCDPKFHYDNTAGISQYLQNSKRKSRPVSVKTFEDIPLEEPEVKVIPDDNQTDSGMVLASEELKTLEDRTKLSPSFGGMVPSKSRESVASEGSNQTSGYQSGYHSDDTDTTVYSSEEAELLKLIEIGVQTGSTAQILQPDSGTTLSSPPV

Sequence of Platelet-derived growth factor receptor beta (P05622 whole entry): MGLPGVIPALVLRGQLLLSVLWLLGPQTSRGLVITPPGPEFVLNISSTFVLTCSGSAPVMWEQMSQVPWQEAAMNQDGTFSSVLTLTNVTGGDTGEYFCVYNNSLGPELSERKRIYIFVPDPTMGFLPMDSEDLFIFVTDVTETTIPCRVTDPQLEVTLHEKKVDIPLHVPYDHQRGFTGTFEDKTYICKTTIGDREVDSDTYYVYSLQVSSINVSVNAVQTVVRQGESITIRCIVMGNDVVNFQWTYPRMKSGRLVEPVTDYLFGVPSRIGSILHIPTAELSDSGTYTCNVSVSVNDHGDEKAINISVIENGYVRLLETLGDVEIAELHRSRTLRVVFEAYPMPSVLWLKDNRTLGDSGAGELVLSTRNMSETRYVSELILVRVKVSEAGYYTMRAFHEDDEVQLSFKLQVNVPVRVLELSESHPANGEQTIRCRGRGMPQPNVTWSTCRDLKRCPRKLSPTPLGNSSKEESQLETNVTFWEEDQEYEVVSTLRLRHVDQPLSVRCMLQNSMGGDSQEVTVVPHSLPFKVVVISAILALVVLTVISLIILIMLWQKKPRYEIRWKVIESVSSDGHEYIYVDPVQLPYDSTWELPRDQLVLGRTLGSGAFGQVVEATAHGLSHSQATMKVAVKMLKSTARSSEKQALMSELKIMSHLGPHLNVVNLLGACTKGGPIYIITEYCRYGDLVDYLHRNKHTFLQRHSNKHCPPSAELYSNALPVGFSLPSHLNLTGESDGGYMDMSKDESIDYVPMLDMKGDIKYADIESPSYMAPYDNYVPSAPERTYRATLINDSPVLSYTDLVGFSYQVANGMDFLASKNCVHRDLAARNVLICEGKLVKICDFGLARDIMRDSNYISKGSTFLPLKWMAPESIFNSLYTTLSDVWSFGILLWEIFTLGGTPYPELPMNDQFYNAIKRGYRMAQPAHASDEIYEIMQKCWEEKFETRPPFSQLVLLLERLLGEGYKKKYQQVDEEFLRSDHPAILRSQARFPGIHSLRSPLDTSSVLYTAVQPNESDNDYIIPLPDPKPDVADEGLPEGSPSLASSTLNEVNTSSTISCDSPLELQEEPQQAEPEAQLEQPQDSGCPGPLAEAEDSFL

| SMILES | IC50 [1] [µM] | IC50 [2] [µM] | IC50 [3] [µM] | IC50 [4] [µM] | IC50 [5] [µM] |
| --- | --- | --- | --- | --- | --- |
| CN1CCN(CCCNc2cc3nc(NC(=O)NC(C)(C)C)c(-c4ccccc4)cc3cn2)CC1 | 0.23 | 1.2 | – | – | – |
| CCN(CC)CCCCNc1cc2nc(NC(=O)NC(C)(C)C)c(-c3c(Cl)cccc3Cl)cc2cn1 | 0.014 | 0.48 | – | – | – |
| CCN(CC)CCCCNc1cc2nc(NC(=O)NC(C)(C)C)c(-c3ccccc3)cc2cn1 | 0.11 | 0.45 | – | – | – |
| CCNC(=O)Nc1nc2cc(NCCCN3CCN(C)CC3)ncc2cc1-c1cc(OC)cc(OC)c1 | 14 | 30 | 7.5 | – | – |
| COc1cc(OC)cc(-c2cc3cnc(NCCCN4CCN(C)CC4)nc3nc2NC(=O)NC(C)(C)C)c1 | 26 | 31 | 7.9 | – | – |
| CN1CCN(CCCNc2cc3nc(N)c(-c4c(Cl)cccc4Cl)cc3cn2)CC1 | 0.069 | 4.7 | – | – | – |
| CN1CCN(CCCNc2cc3nc(NC(=O)NC(C)(C)C)c(-c4c(Cl)cccc4Cl)cc3cn2)CC1 | 0.019 | 0.62 | – | – | – |
| CCNC(=O)Nc1nc2cc(NCCCCN(CC)CC)ncc2cc1-c1cc(OC)cc(OC)c1 | 7 | 6.5 | 3.5 | – | – |
| CN1CCN(CCCNc2cc3nc(N)c(-c4ccccc4)cc3cn2)CC1 | 1.6 | 8.8 | – | – | – |
| COc1cc(OC)cc(-c2cc3cnc(NCCCO)nc3nc2NC(=O)NC(C)(C)C)c1 | > 50 | > 50 | 11 | – | – |
| COc1cc(OC)cc(-c2cc3cnc(NCCCN4CCN(C)CC4)cc3nc2N)c1 | > 50 | 50 | 9.1 | – | – |
| CCN(CC)CCCCNc1cc2nc(N)c(-c3c(Cl)cccc3Cl)cc2cn1 | 0.042 | 4 | – | – | – |
| CCN(CC)CCCCNc1cc2nc(N)c(-c3ccccc3)cc2cn1 | 1.4 | 12 | – | – | – |
| CCN(CC)CCCCNc1cc2nc(N)c(-c3cc(OC)cc(OC)c3)cc2cn1 | 26 | > 50 | 5.9 | – | – |
| CCNC(=O)Nc1nc2cc(NCCCN3CCN(C)CC3)ncc2cc1-c1c(Cl)cccc1Cl | 0.019 | 0.54 | – | – | – |
| CCNC(=O)Nc1nc2nc(NCCCCN(CC)CC)ncc2cc1-c1cc(OC)cc(OC)c1 | 22 | 27 | > 25 | – | – |
| CCNC(=O)Nc1nc2nc(NCCCN3CCN(C)CC3)ncc2cc1-c1cc(OC)cc(OC)c1 | 35 | 45 | 12 | – | – |
| CN1CCN(CCCNc2cc3nc(NCCCN4CCN(C)CC4)c(-c4ccccc4)cc3cn2)CC1 | 6.8 | > 50 | – | – | – |
| COc1cc(OC)cc(-c2cc3cnc(NCCCN4CCOCC4)cc3nc2NC(=O)NC(C)(C)C)c1 | > 50 | – | 3.4 | – | – |
| CCNC(=O)Nc1nc2cc(NCCCCN(CC)CC)ncc2cc1-c1c(Cl)cccc1Cl | 0.014 | 0.16 | – | – | – |

Now from value to molecule:

| IC50 [1] [µM] | IC50 [2] [µM] | IC50 [3] [µM] | IC50 [4] [µM] | IC50 [5] [µM] | SMILES |
| --- | --- | --- | --- | --- | --- |
| > 50 | > 50 | – | – | – | COc1cc(OC)cc(-c2cc3cnc(N(CCCO)C(C)=O)cc3nc2NC(=O)NC(C)(C)C)c1 |
| 6.1 | 27 | 0.98 | – | – | COc1cc(OC)cc(-c2cc3cnc(NCCCCCN4CCN(C)CC4)cc3nc2NC(=O)NC(C)(C)C)c1 |
| > 50 | > 50 | – | – | – | COc1cc(OC)cc(C2Cc3cnc(N(CCCCOCc4ccccc4)C(C)=O)cc3N=C2NC(=O)NC(C)(C)C)c1 (stereo unspecified) |
| 4.6 | 2.6 | 2.1 | – | – | CCN(CC)CCCCNc1cc2nc(NC(=O)NC(C)(C)C)c(-c3cc(OC)cc(OC)c3)cc2cn1 |
| > 50 | 11 | 3.4 | – | – | COc1cc(OC)cc(-c2cc3cnc(NCCCCCO)cc3nc2NC(=O)NC(C)(C)C)c1 |
| > 50 | > 50 | – | – | – | COc1cc(OC)cc(C2Cc3cnc(N(CCCCO)C(C)=O)cc3N=C2NC(=O)NC(C)(C)C)c1 (stereo unspecified) |
| 16 | 18 | 4 | – | – | CCN(CC)CCCNc1cc2nc(NC(=O)NC(C)(C)C)c(-c3cc(OC)cc(OC)c3)cc2cn1 |
| > 50 | 32 | 1.8 | – | – | COc1cc(OC)cc(-c2cc3cnc(NCCCO)cc3nc2NC(=O)NC(C)(C)C)c1 |
| > 50 | > 50 | – | – | – | COc1cc(OC)cc(-c2cc3cnc(NCCCCOc4ccccc4)cc3nc2NC(=O)NC(C)(C)C)c1 |
| > 50 | > 50 | – | – | – | COc1cc(OC)cc(C2Cc3cnc(N(CCCO)C(C)=O)cc3N=C2NC(=O)NC(C)(C)C)c1 (stereo unspecified) |
| > 50 | > 50 | – | – | – | COc1cc(OC)cc(-c2cc3cnc(N(CCCCOCc4ccccc4)C(C)=O)cc3nc2NC(=O)NC(C)(C)C)c1 |
| > 50 | > 50 | – | – | – | COc1cc(OC)cc(-c2cc3cnc(NCCCCCOc4ccccc4)cc3nc2NC(=O)NC(C)(C)C)c1 |
| > 50 | > 50 | – | – | – | COc1cc(OC)cc(C2Cc3cnc(N(CCCOCc4ccccc4)C(C)=O)cc3N=C2NC(=O)NC(C)(C)C)c1 (stereo unspecified) |
| > 50 | > 50 | – | – | – | COc1cc(OC)cc(-c2cc3cnc(N(CCCCO)C(C)=O)cc3nc2NC(=O)NC(C)(C)C)c1 |
| > 50 | > 50 | – | – | – | COc1cc(OC)cc(-c2cc3cnc(NCCCOc4ccccc4)cc3nc2NC(=O)NC(C)(C)C)c1 |
| 16 | > 50 | 2.9 | – | – | COc1cc(OC)cc(-c2cc3cnc(NCCCCCN4CCOCC4)cc3nc2NC(=O)NC(C)(C)C)c1 |
| > 50 | > 50 | – | – | – | COc1cc(OC)cc(-c2cc3cnc(N(CCCOCc4ccccc4)C(C)=O)cc3nc2NC(=O)NC(C)(C)C)c1 |
| > 50 | > 50 | – | – | – | COc1cc(OC)cc(-c2cc3cnc(N(CCCCCOCc4ccccc4)C(C)=O)cc3nc2NC(=O)NC(C)(C)C)c1 |
| > 50 | > 50 | – | – | – | COc1cc(OC)cc(-c2cc3cnc(N(CCCCCO)C(C)=O)cc3nc2NC(=O)NC(C)(C)C)c1 |
| 21 | 15 | 2.7 | – | – | COc1cc(OC)cc(-c2cc3cnc(NCCCCN4CCOCC4)cc3nc2NC(=O)NC(C)(C)C)c1 |
| 20 | 14 | 17 | 0.19 | 0.12 | CCN(CC)CCCCNc1ncc2cc(-c3cc(OC)cc(OC)c3)c(NC(=O)NC(C)(C)C)nc2n1 [PD-173074] |
| > 50 | 23 | 1.2 | – | – | COc1cc(OC)cc(-c2cc3cnc(NCCCCO)cc3nc2NC(=O)NC(C)(C)C)c1 |
| > 50 | > 50 | – | – | – | COc1cc(OC)cc(C2Cc3cnc(N(CCCCCO)C(C)=O)cc3N=C2NC(=O)NC(C)(C)C)c1 (stereo unspecified) |
| 4.1 | 3.6 | 1.3 | – | – | COc1cc(OC)cc(-c2cc3cnc(NCCCCN4CCN(C)CC4)cc3nc2NC(=O)NC(C)(C)C)c1 |
| > 50 | > 50 | – | – | – | COc1cc(OC)cc(C2Cc3cnc(N(CCCCCOCc4ccccc4)C(C)=O)cc3N=C2NC(=O)NC(C)(C)C)c1 (stereo unspecified) |
| 9.1 | 16 | 1.8 | – | – | COc1cc(OC)cc(-c2cc3cnc(NCCCN4CCN(C)CC4)cc3nc2NC(=O)NC(C)(C)C)c1 |
| 3.6 | 5 | 1.5 | – | – | CCN(CC)CCCCCNc1cc2nc(NC(=O)NC(C)(C)C)c(-c3cc(OC)cc(OC)c3)cc2cn1 |

— ChEMBL document CHEMBL1145157, “Synthesis and structure-activity relationships of soluble 7-substituted 3-(3,5-dimethoxyphenyl)-1,6-naphthyridin-2-amines and related ureas as dual inhibitors of the fibroblast growth factor receptor-1 and vascular endothelial growth factor receptor-2 tyrosine kinases” (J Med Chem, 2005)
